The values below are quoted from earlier work in publication PMC3099137 (Bioorganic & medicinal chemistry, 2011).

Each structure is given as a SMILES string.

For data set [1] the following is noted: mice, attributed to in vivo defluorination.
The next data set addresses EGFR tyrosine kinase. To be noted: read-out: IC50, inhibition of EGFR tyrosine kinase activity.

As to `COc1cc2ncnc(Nc3ccc([18F])c(Cl)c3)c2cc1OC` [4-(3-chloro-4-[^18F]fluoroanilino)-6,7-dimethoxy-quinazoline], in data set [1], the “bone uptake (in words)” value was “high bone uptake”.

One may read the IC50 as the concentration at which inhibition is half-maximal. For the compound `COc1cc2ncnc(Nc3cccc(Br)c3)c2cc1OC` [PD153035, 6,7-dimethoxy-4-(3-bromoanilino)quinazoline], at EGFR tyrosine kinase, the concentration for half-maximal inhibition (IC50) is 25 pM.

Turning to `CCOc1cc2ncnc(Nc3cccc(Br)c3)c2cc1OCC` [diethoxy- derivative], the IC50 on EGFR tyrosine kinase is 6 pM.
